Test results published in patent US10045978B2 (AB SCIENCE, priority 2010, dated 2018).

Test system: patients with indolent forms of mastocytosis with handicap, D816V absent in at least one infiltrated organ
Assay: Example 1 phase 2a study, response assessment
Assay type: in vivo, human
Set-up: Hamilton rating Δ Mean ± SD / QLQ-C30 Symptom Δ Mean ± SD / QLQ-C30 Global Health Δ Mean ± SD / AFIRMM Δ Mean ± SD / Hamilton rating ΔMean ± SD / QLQC30 Symptom ΔMean ± SD / QLQC30 Global Health ΔMean ± SD / AFIRMM ΔMean ± SD: scale not given here
Method: Eligible patients were aged >18 years, had previously documented indolent systemic, smoldering systemic or cutaneous mastocytosis as per the WHO classification with associated disability as the result of mast cell released mediators and had not responded to usual symptomatic treatments for more the 6 months. […] A single occurrence of this criterion was deemed sufficient for inclusion and so no systematic examination of multiple organs was carried out specifically for this study.
Patients were classified as having a handicap if after appropriate symptomatic treatments they fulfilled at least one of the following a priori criteria: number of flushes/day ≥1; pruritus score ≥6; number of stools ≥4/day; micturition frequency ≥8/day; Hamilton rating for depression ≥10; or EORTC quality-of-life questionnaire (QLQ-C30) symptom score, functional score, and global health status of >0. Patients were excluded if they experienced inadequate organ function defined via blood test levels, or an Eastern Cooperative Oncology Group performance status >2. Other exclusion criteria included: life expectancy <6 months, severe or uncontrolled medical disease, and patients who were pregnant or nursing.
In accordance to the AFIRMM study (Hermine O, et al., 2008, PLoS ONE. 3:e2266), evaluation of treatment response was based upon the change of clinical symptoms associated with a patient's handicaps at week 12 (W12) relative to baseline. Primary endpoints were daily frequency of flushes; pruritus score; and Hamilton rating for depression, as well as, daily stool and micturition frequencies; QLQ-C30 global health status, functional, and symptom scores. […] For those patients entering the extension phase, assessments were performed every 4 weeks for the first 3 months of extension, and every 12 weeks thereafter. Secondary endpoints included the W12 assessment of AFIRMM score (a validated questionnaire assessing the self-perceived severity of mastocytosis) (Hermine O, et al., 2008, PLoS ONE. 3:e2266); overall patient assessment (OPA) score; tryptase levels; and change in organ mast cell infiltration. Determination of D816V mutation and serum tryptase levels was conducted following procedures described previously (Hermine O, et al., 2008, PLoS ONE. 3:e2266). Overall clinical response analysis at W12 defined a responder as having an improvement of ≥50% in baseline handicap of a key response endpoint (Hamilton rating, flushes, or pruritus) without deterioration or emergence of handicap. Any patient with deterioration of ≥50% in any handicap, and/or with emergence of a new handicap with an increase of ≥50% from baseline was considered as worsening. Any patient who discontinued the study before W12 was considered a non responder. Discrimination between dose regimens was investigated by analyses of the ‘time to first response’, according to the initial dosage, and ‘dose at time of first response’ in key response endpoints.
Response analysis was performed on subgroups of the ITT population according to a patient's handicap at baseline and for whom response was evaluated at W12; referred to hereafter as the handicap-related population. No data imputation was implemented. The per protocol (PP) population was defined as a subset of a given handicap-related population, which in addition had presented no major protocol deviations. Summary response data are presented using descriptive statistics with mean improvement compared to baseline in each handicap cohort, regardless of disease classification. The appropriate Wilcoxon or Fisher tests were used for group comparison of baseline disease, demographic characteristics between dose level groups and response relative to baseline. Subpopulation analysis was also conducted according to initial c-Kit status.

[1] = W12, Group 1 (no confirmed D816V)
[2] = W12, Group 2 (mixed c-Kit status)
[3] = W12, handicap-related population

Cc1ccc(NC(=O)c2ccc(CN3CCN(C)CC3)cc2)cc1Nc1nc(-c2cccnc2)cs1 [masitinib, 4-(4-methylpiperazin-1-ylmethyl)-N-[4-methyl-3-(4-pyridin-3ylthiazol-2-ylamino)phenyl]benzamide]
skin mast cell infiltration: good partial response (≥50% reduction) (1/14 evaluable patients): 7%
OPA: worsening of health status (1/20 patient at one time point): 5%
skin mast cell infiltration: partial response (1 to 49% reduction) (6/14 evaluable patients): 43%
skin mast cell infiltration: no change (7/14 evaluable patients): 50%
OPA score improvement of at least one point (9/20 patients): 45%
first response events at lower dose level of 4.5 mg/kg/day (48/79 events): 60%
first response events occurring at dose ≤6 mg/kg/day (76/79 events): 96%
first response events: AFIRMM score (Total, all doses): 10
first response events: Flush (Total, all doses): 17
first response events: Hamilton (Total, all doses): 10
first response events: Micturition (Total, all doses): 1
first response events: OPA score (Total, all doses): 7
first response events: Pruritus (Total, all doses): 11
first response events: QLQ30 Functional (Total, all doses): 5
first response events: QLQ30 Global (Total, all doses): 6
first response events: QLQ30 Symptom (Total, all doses): 5
first response events: Stool (Total, all doses): 7
first response events: Total events (Total, all doses): 79
QLQ-C30 functional score improvement (W12): 39%±81
QLQ-C30 global health status improvement (W12): 51%±108
QLQ-C30 symptom score improvement (W12): 2.5%±69
clinical response rate: Hamilton rating (W12): 50%
clinical response rate: flushes (W12): 60%
clinical response rate: pruritus (W12): 25%
OPA: impaired health status at baseline reporting none or minimal impairment (W12, 3/20 evaluable patients): 15%
AFIRMM Δ Mean ± SD (W12, All): −61.5 ± 49.6
Flushes per day Δ Mean ± SD (W12, All): −1.7 ± 1.5
Hamilton rating Δ Mean ± SD (W12, All): −5.1 ± 4.4
Micturitions per day Δ Mean ± SD (W12, All): −3.1 ± 3.7
Pruritus Δ Mean ± SD (W12, All): −3.0 ± 3.4
QLQ-C30 Functional Δ Mean ± SD (W12, All): 8.7 ± 18.8
QLQ-C30 Global Health Δ Mean ± SD (W12, All): 12.5 ± 24.7
QLQ-C30 Symptom Δ Mean ± SD (W12, All): −6.1 ± 13.6
Stools per day Δ Mean ± SD (W12, All): −1.9 ± 3.6
AFIRMM Δ Mean ± SD [1]: −63.5 ± 52.9
Flushes per day Δ Mean ± SD [1]: −2.0 ± 1.6
Hamilton rating Δ Mean ± SD [1]: −4.6 ± 4.3
Micturitions per day Δ Mean ± SD [1]: −3.0 ± 2.8
Pruritus Δ Mean ± SD [1]: −3.5 ± 3.6
QLQ-C30 Functional Δ Mean ± SD [1]: 8.7 ± 21.0
QLQ-C30 Global Health Δ Mean ± SD [1]: 14.1 ± 27.0
QLQ-C30 Symptom Δ Mean ± SD [1]: −5.4 ± 14.7
Stools per day Δ Mean ± SD [1]: −2.0 ± 4.0
AFIRMM Δ Mean ± SD [2]: −53.5 ± 38.5
Flushes per day Δ Mean ± SD [2]: −0.8 ± 0.5
Hamilton rating Δ Mean ± SD [2]: −10.0
Micturitions per day Δ Mean ± SD [2]: −3.5 ± 7.8
Pruritus Δ Mean ± SD [2]: −1.0 ± 2.2
QLQ-C30 Functional Δ Mean ± SD [2]: 8.6 ± 4.8
QLQ-C30 Global Health Δ Mean ± SD [2]: 6.3 ± 12.5
QLQ-C30 Symptom Δ Mean ± SD [2]: −9.5 ± 6.2
Stools per day Δ Mean ± SD [2]: −1.5 ± 2.1
overall clinical response (W12, ITT): 14/25
tryptase level, mean reduction (W12, PP patients with elevated tryptase (>15 ng/mL) at baseline (N=5)): 23%
micturition frequency improvement (W12, PP population): 39%±14
stool frequency improvement (W12, PP population): 44%±63
AFIRMM global score improvement (W12, evaluable patients (N=20)): 40%±27
micturition frequency improvement [3]: 23%±30
stool frequency improvement [3]: 29%±58
bone marrow mast cell infiltration (W12, one patient of 15 evaluable, 7% at baseline): 1%
first response events: Cumulative Frequency (at 1.5 mg/kg/day): 0%
first response events: Total events (at 1.5 mg/kg/day): 0
first response events: AFIRMM score (at 3.0 mg/kg/day): 4
first response events: Cumulative Frequency (at 3.0 mg/kg/day): 46%
first response events: Flush (at 3.0 mg/kg/day): 9
first response events: Hamilton (at 3.0 mg/kg/day): 4
first response events: OPA score (at 3.0 mg/kg/day): 2
first response events: Pruritus (at 3.0 mg/kg/day): 5
first response events: QLQ30 Functional (at 3.0 mg/kg/day): 3
first response events: QLQ30 Global (at 3.0 mg/kg/day): 2
first response events: QLQ30 Symptom (at 3.0 mg/kg/day): 2
first response events: Stool (at 3.0 mg/kg/day): 5
first response events: Total events (at 3.0 mg/kg/day): 36
first response events: AFIRMM score (at 4.5 mg/kg/day): 1
first response events: Cumulative Frequency (at 4.5 mg/kg/day): 61%
first response events: Flush (at 4.5 mg/kg/day): 3
first response events: Hamilton (at 4.5 mg/kg/day): 2
first response events: Pruritus (at 4.5 mg/kg/day): 2
first response events: QLQ30 Functional (at 4.5 mg/kg/day): 1
first response events: QLQ30 Global (at 4.5 mg/kg/day): 2
first response events: QLQ30 Symptom (at 4.5 mg/kg/day): 1
first response events: Total events (at 4.5 mg/kg/day): 12
